Experiments:
HGSTM1 = target: T1, HGSTM1 (Homo sapiens, UniProt P09488); assay: GSH-CDNB conjugation, absorbance […] nm, single concentration; type: biochemical
T1 construct: gene GSTM1; commercial human GST M1 (Oxford Biomedical Research GS65)
T1 sequence (P09488 2-218): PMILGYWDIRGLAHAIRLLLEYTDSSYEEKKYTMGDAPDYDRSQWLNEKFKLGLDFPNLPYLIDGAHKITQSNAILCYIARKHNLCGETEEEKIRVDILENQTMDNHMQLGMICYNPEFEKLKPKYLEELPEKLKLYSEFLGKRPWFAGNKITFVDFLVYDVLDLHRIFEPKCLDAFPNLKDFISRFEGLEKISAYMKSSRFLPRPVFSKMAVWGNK

Ts25GST = target: T2, Ts25GST (Taenia solium, UniProt Q8MWS0); assay: GSH-CDNB conjugation, absorbance […] nm, dose-response; type: biochemical
T2 construct: about 25 kDa on SDS-PAGE; dimer; no tag mentioned
T2 sequence (Q8MWS0 1-219): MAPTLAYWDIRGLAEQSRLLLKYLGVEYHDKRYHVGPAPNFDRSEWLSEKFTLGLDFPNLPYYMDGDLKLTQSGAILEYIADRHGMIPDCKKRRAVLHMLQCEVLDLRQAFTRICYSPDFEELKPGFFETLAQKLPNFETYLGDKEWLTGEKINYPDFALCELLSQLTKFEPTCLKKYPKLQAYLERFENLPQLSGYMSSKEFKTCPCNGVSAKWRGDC

SMILES | inhibition at 40 µM (HGSTM1) | IC50 (Ts25GST)
O=C(CSc1ncc(-c2ccccc2)nn1)NC1=NN=C(c2ccccc2)CS1 [i11] | 33.4 ± 2.2% | 
O=C(CCN1C(=O)c2ccccc2C1=O)Nc1ccc(Nc2ccccc2)cc1 [i15] | 30.8 ± 1.9% | 25.7 ± 1.1 µM

Source: paper PMC11760891, “Discovery and Characterization of Two Selective Inhibitors for a Mu-Class Glutathione S-Transferase of 25 kDa from Taenia solium Using Computational and Bioinformatics Tools” (Biomolecules, 2024)
